The NIST ThermoML archive (doi:10.1021/je5009334)

Assay: xn = mol fraction of the nth substance listed
Conditions: 101 kPa, Liquid; for speed of sound: Sing-around technique in a fixed-path interferometer; for mass density: Vibrating tube method

CCC(O)CO (stereo not given) [1,2-butanediol] + CCC(C)O
Conditions	mass density [kg/m3]	speed of sound [m/s]
298.15 K, x1 = 0.1	821.98	1231
298.15 K, x1 = 0.2	841.211	1250.6
298.15 K, x1 = 0.3	860.512	1270.9
298.15 K, x1 = 0.4	879.912	1292.2
298.15 K, x1 = 0.5	899.493	1315.5
298.15 K, x1 = 0.6	919.721	1340.2
298.15 K, x1 = 0.7	939.207	1365.7
298.15 K, x1 = 0.8	959.168	1393.3
298.15 K, x1 = 0.9	978.763	1423.1
298.15 K, x1 = 1	998.509	1452.6
303.15 K, x1 = 0.1	817.802	1213.1
303.15 K, x1 = 0.2	837.068	1233.5
303.15 K, x1 = 0.3	856.416	1253.8
303.15 K, x1 = 0.4	875.848	1275.5
303.15 K, x1 = 0.5	895.477	1299.1
303.15 K, x1 = 0.6	915.764	1324.6
303.15 K, x1 = 0.7	935.294	1350
303.15 K, x1 = 0.8	955.308	1378.1
303.15 K, x1 = 0.9	974.958	1408.3
303.15 K, x1 = 1	994.759	1438.2
308.15 K, x1 = 0.1	813.551	1195.3
308.15 K, x1 = 0.2	832.862	1216
308.15 K, x1 = 0.3	852.256	1236.8
308.15 K, x1 = 0.4	871.737	1258.8
308.15 K, x1 = 0.5	891.419	1282.9
308.15 K, x1 = 0.6	911.761	1308.7
308.15 K, x1 = 0.7	931.345	1334.5
308.15 K, x1 = 0.8	951.414	1362.8
308.15 K, x1 = 0.9	971.12	1393.4
308.15 K, x1 = 1	990.971	1423.6
313.15 K, x1 = 0.1	809.205	1177.3
313.15 K, x1 = 0.2	828.579	1198.2
313.15 K, x1 = 0.3	848.033	1219.7
313.15 K, x1 = 0.4	867.576	1242.2
313.15 K, x1 = 0.5	887.316	1266.7
313.15 K, x1 = 0.6	907.718	1292.9
313.15 K, x1 = 0.7	927.356	1319
313.15 K, x1 = 0.8	947.483	1347.7
313.15 K, x1 = 0.9	967.241	1378.5
313.15 K, x1 = 1	987.152	1409.1
318.15 K, x1 = 0.1	804.796	1159.3
318.15 K, x1 = 0.2	824.244	1180.7
318.15 K, x1 = 0.3	843.762	1202.6
318.15 K, x1 = 0.4	863.365	1225.5
318.15 K, x1 = 0.5	883.169	1250.5
318.15 K, x1 = 0.6	903.63	1277
318.15 K, x1 = 0.7	923.329	1303.5
318.15 K, x1 = 0.8	943.516	1332.5
318.15 K, x1 = 0.9	963.332	1363.6
318.15 K, x1 = 1	983.297	1394.5
323.15 K, x1 = 0.1	800.305	1141.5
323.15 K, x1 = 0.2	819.834	1163.1
323.15 K, x1 = 0.3	839.427	1185.5
323.15 K, x1 = 0.4	859.1	1208.9
323.15 K, x1 = 0.5	878.969	1234.3
323.15 K, x1 = 0.6	899.488	1260.8
323.15 K, x1 = 0.7	919.266	1288.4
323.15 K, x1 = 0.8	939.516	1317.6
323.15 K, x1 = 0.9	959.384	1348.7
323.15 K, x1 = 1	979.406	1379.9

CCC(O)CO (stereo not given) [1,2-butanediol] + OCc1ccccc1
Conditions	mass density [kg/m3]	speed of sound [m/s]
298.15 K, x2 = 0	998.492	1452.6
298.15 K, x2 = 0.1	1003.29	1460.7
298.15 K, x2 = 0.2	1007.97	1469.2
298.15 K, x2 = 0.3	1012.52	1477.2
298.15 K, x2 = 0.4	1016.95	1485.3
298.15 K, x2 = 0.5	1021.24	1493.2
298.15 K, x2 = 0.6	1025.4	1500.6
298.15 K, x2 = 0.7	1029.45	1507.6
298.15 K, x2 = 0.8	1033.41	1514
298.15 K, x2 = 0.9	1037.31	1519.9
303.15 K, x2 = 0	994.744	1438.2
303.15 K, x2 = 0.1	999.491	1445.9
303.15 K, x2 = 0.2	1004.13	1454.3
303.15 K, x2 = 0.3	1008.65	1462.1
303.15 K, x2 = 0.4	1013.06	1470.3
303.15 K, x2 = 0.5	1017.34	1478
303.15 K, x2 = 0.6	1021.49	1485.2
303.15 K, x2 = 0.7	1025.54	1491.7
303.15 K, x2 = 0.8	1029.5	1498
303.15 K, x2 = 0.9	1033.42	1503.9
308.15 K, x2 = 0	990.956	1423.6
308.15 K, x2 = 0.1	995.66	1431.2
308.15 K, x2 = 0.2	1000.26	1439.4
308.15 K, x2 = 0.3	1004.76	1446.8
308.15 K, x2 = 0.4	1009.14	1454.9
308.15 K, x2 = 0.5	1013.4	1462.5
308.15 K, x2 = 0.6	1017.55	1469.4
308.15 K, x2 = 0.7	1021.6	1476
308.15 K, x2 = 0.8	1025.58	1482.2
308.15 K, x2 = 0.9	1029.52	1488.1
313.15 K, x2 = 0	987.136	1409.2
313.15 K, x2 = 0.1	991.786	1416.7
313.15 K, x2 = 0.2	996.372	1424.4
313.15 K, x2 = 0.3	1000.84	1431.8
313.15 K, x2 = 0.4	1005.2	1439.7
313.15 K, x2 = 0.5	1009.46	1447.1
313.15 K, x2 = 0.6	1013.6	1453.9
313.15 K, x2 = 0.7	1017.66	1460.4
313.15 K, x2 = 0.8	1021.64	1466.6
313.15 K, x2 = 0.9	1025.6	1472.5
318.15 K, x2 = 0	983.284	1394.6
318.15 K, x2 = 0.1	987.894	1401.9
318.15 K, x2 = 0.2	992.45	1409.5
318.15 K, x2 = 0.3	996.891	1416.7
318.15 K, x2 = 0.4	1001.24	1424.3
318.15 K, x2 = 0.5	1005.48	1431.4
318.15 K, x2 = 0.6	1009.62	1438.2
318.15 K, x2 = 0.7	1013.68	1444.8
318.15 K, x2 = 0.8	1017.69	1451
318.15 K, x2 = 0.9	1021.67	1456.9
323.15 K, x2 = 0	979.394	1380
323.15 K, x2 = 0.1	983.969	1387.2
323.15 K, x2 = 0.2	988.488	1394.3
323.15 K, x2 = 0.3	992.923	1401.7
323.15 K, x2 = 0.4	997.257	1409.1
323.15 K, x2 = 0.5	1001.49	1416.2
323.15 K, x2 = 0.6	1005.63	1423.1
323.15 K, x2 = 0.7	1009.7	1429.5
323.15 K, x2 = 0.8	1013.72	1435.7
323.15 K, x2 = 0.9	1017.72	1441.6

CC(O)CCO (stereo not given) [1,3-butanediol] + CCC(O)CO
Conditions	mass density [kg/m3]	speed of sound [m/s]
298.15 K, x2 = 0	1001.82	1527.8
298.15 K, x2 = 0.1	1001.83	1523.2
298.15 K, x2 = 0.2	1001.78	1517.9
298.15 K, x2 = 0.3	1001.74	1512.7
298.15 K, x2 = 0.4	1001.61	1507.1
298.15 K, x2 = 0.5	1001.24	1498.9
298.15 K, x2 = 0.6	1000.94	1492.2
298.15 K, x2 = 0.7	1000.36	1482.6
298.15 K, x2 = 0.8	999.812	1473.2
298.15 K, x2 = 0.9	999.175	1463.1
303.15 K, x2 = 0	998.418	1514.1
303.15 K, x2 = 0.1	998.382	1509
303.15 K, x2 = 0.2	998.283	1503.9
303.15 K, x2 = 0.3	998.2	1498.2
303.15 K, x2 = 0.4	998.02	1492.5
303.15 K, x2 = 0.5	997.617	1484.3
303.15 K, x2 = 0.6	997.284	1477.4
303.15 K, x2 = 0.7	996.675	1468
303.15 K, x2 = 0.8	996.1	1458.5
303.15 K, x2 = 0.9	995.436	1448.3
308.15 K, x2 = 0	994.987	1500.2
308.15 K, x2 = 0.1	994.902	1494.9
308.15 K, x2 = 0.2	994.756	1489.6
308.15 K, x2 = 0.3	994.626	1483.8
308.15 K, x2 = 0.4	994.403	1478
308.15 K, x2 = 0.5	993.965	1469.7
308.15 K, x2 = 0.6	993.596	1462.7
308.15 K, x2 = 0.7	992.955	1453.3
308.15 K, x2 = 0.8	992.352	1443.8
308.15 K, x2 = 0.9	991.664	1433.7
313.15 K, x2 = 0	991.528	1486.3
313.15 K, x2 = 0.1	991.39	1480.8
313.15 K, x2 = 0.2	991.196	1475.3
313.15 K, x2 = 0.3	991.02	1469.3
313.15 K, x2 = 0.4	990.753	1463.5
313.15 K, x2 = 0.5	990.276	1455.1
313.15 K, x2 = 0.6	989.874	1448
313.15 K, x2 = 0.7	989.201	1438.5
313.15 K, x2 = 0.8	988.572	1429.1
313.15 K, x2 = 0.9	987.858	1419
318.15 K, x2 = 0	988.035	1472.3
318.15 K, x2 = 0.1	987.845	1466.5
318.15 K, x2 = 0.2	987.595	1460.6
318.15 K, x2 = 0.3	987.379	1454.9
318.15 K, x2 = 0.4	987.07	1449
318.15 K, x2 = 0.5	986.554	1440.5
318.15 K, x2 = 0.6	986.118	1433.3
318.15 K, x2 = 0.7	985.412	1423.9
318.15 K, x2 = 0.8	984.756	1414.3
318.15 K, x2 = 0.9	984.01	1404.4
323.15 K, x2 = 0	984.506	1458.3
323.15 K, x2 = 0.1	984.262	1452.5
323.15 K, x2 = 0.2	983.961	1446.2
323.15 K, x2 = 0.3	983.701	1440.4
323.15 K, x2 = 0.4	983.35	1434.3
323.15 K, x2 = 0.5	982.795	1425.8
323.15 K, x2 = 0.6	982.326	1418.6
323.15 K, x2 = 0.7	981.586	1409.1
323.15 K, x2 = 0.8	980.82	1399.6
323.15 K, x2 = 0.9	980.034	1390.1
